Data as given in US20250339399A1, “SUPRAMOLECULAR SELF-ASSEMBLY SYSTEM” (Beijing Creatron Institute of Pharmaceutical Research Co., …, priority 2022, published 2025).
Several values for one entry are separate records, joined by “and”; a condition that tells them apart may be missing. Identical values can stand only once.

Experiments:
[1] = Binary supramolecular self-assembly systems of polymer and target: guest concentration over incubation time (Comparative Example 2); assay type: physicochemical; details: for Times that of the initial medium / Concentration of guest molecule in solution: 6 h
Description: Experiments were conducted according to the steps in Comparative Example 1, and quantitative analysis was carried out using the analytical method for each target to investigate the regulation ability […] stacking.

[2] = cited from earlier work
[3] = Guest molecule concentration after incubation in initial medium without polymer (Comparative Example 1); assay type: physicochemical; details: 37° C.
Outline: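 Dissolved guest content measured by HPLC of centrifuged supernatants (37° C., 13000 rpm, 5 min) sampled at 0.5 h, 3 h and 6 h. Incubation was polymer-free at 37° C.±0.5° C. in buffers of pH 2.0-7.4; nominal loading was set by maximum clinical dose.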

[4] = Binary (carrier), ternary and quaternary supramolecular self-assembly systems of polymer, carrier building block and target: guest concentration over incubation time (Examples 1-56); assay type: physicochemical; details: for Concentration of guest molecule in solution / Times that of the initial medium: 6 h
Description: pH 2.0 hydrochloric acid, pH 4.5 acetate, and pH 6.5, pH 6.8, or pH 7.4 phosphate buffer solutions were prepared. The selection of each initial medium followed the principle that the solubility in the initial medium of the selected targets (or active ingredients) should low enough, but should meet the detection sensitivity and accuracy requirements of the corresponding analytical methods. Each buffer as initial media was placed in a 50 ml test tube with a stopper, shaken in a constant temperature air shaker at 37° C.±0.5° C., with an amplitude of 200 rpm, and incubated for 1 hour. […] Samples were taken at 0.5 h, 3 h and 6 h after incubation, centrifuged at 37° C., 13000 rpm for 5 minutes, and the supernatant was diluted at least 10 times with the mobile phase under the target analyte analytical method, filtered, the initial filtrate was discarded, and the continued filtrate was used as the test solution for injection analysis. The corresponding HPLC method under each target object item in Table 8 was used to determine the content of each target substance. When the solubility of the target in the initial medium is below the quantitative limit of the analytical method, a small amount of surfactant, such as sodium dodecyl sulfate (SDS), Tween20, or Tween80, can be added appropriately.
Experiments were conducted according to the steps in Comparative Example 1, and quantitative analysis was carried out using the analytical method for each target to investigate the regulation ability of each binary supramolecular self-assembly system built from 0.5% polymer and target on guest molecules stacking.
Ternary supramolecular self-assembly systems based on different polymers, carrier building blocks, and targets were built according to the experimental scheme in Table 12, to investigate the influence of synergistic regulation of the carrier building blocks and the polymers on the stacking of target molecules, as well as the stability of the supramolecular self-assembly systems jointly built by them over incubation time. The initial medium, quantitative analysis method, pre-treatment method, and initial theoretical concentration of the target, corresponding to each target molecule in the experiment, were consistent with those in Comparative Examples 1 and 2. After a target was added to the system, the target was uniformly dispersed by ultrasonication at 37° C. for half an hour and then shaken in a 37° C. constant temperature air shaker, and samples were collected after different incubation time, i.e. 0.5 h, 1 h, 2 h, 3 h, 4 h, and 6 h.

[5] = binary system with 0.5% polymer 102, incubation 0.5 h
[6] = binary system with 0.5% polymer 102, incubation 3 h
[7] = binary system with 0.5% polymer 102, incubation 6 h
[8] = binary system with 0.5% polymer 103, incubation 0.5 h
[9] = binary system with 0.5% polymer 103, incubation 3 h
[10] = binary system with 0.5% polymer 103, incubation 6 h
[11] = binary system with 0.5% polymer 104, incubation 0.5 h
[12] = binary system with 0.5% polymer 104, incubation 3 h
[13] = binary system with 0.5% polymer 104, incubation 6 h
[14] = ternary: 102H (0.25% where stated) + 301, carrier % not stated
[15] = ternary: 102H (0.25% where stated) + 302, carrier % not stated
[16] = binary system with 0.5% polymer 101, incubation 0.5 h
[17] = binary system with 0.5% polymer 101, incubation 3 h
[18] = binary system with 0.5% polymer 101, incubation 6 h
[19] = binary system with 0.5% polymer 106, incubation 0.5 h
[20] = binary system with 0.5% polymer 106, incubation 3 h
[21] = binary system with 0.5% polymer 106, incubation 6 h
[22] = binary system with 0.5% polymer 107, incubation 0.5 h
[23] = binary system with 0.5% polymer 107, incubation 3 h
[24] = binary system with 0.5% polymer 107, incubation 6 h
[25] = 0.5 h, 0.05% Tween 20 in pH 6.8 phosphate buffer
[26] = 3 h, 0.05% Tween 20 in pH 6.8 phosphate buffer
[27] = 6 h, 0.05% Tween 20 in pH 6.8 phosphate buffer
[28] = 0.25% 205 (102H+104) + 0.25% 301
[29] = quaternary: 204 (102H+103E5) + 0.5% 301
[30] = ternary: 102H + 313 at further increased mass percentage
[31] = ternary: 102H + 318 at further increased mass percentage

O=C1[C@H](CC[C@H](O)c2ccc(F)cc2)[C@@H](c2ccc(O)cc2)N1c1ccc(F)cc1 [Ezetimibe]
Concentration of the target in the solution measured after different incubation time [1, 5]: 109.4 µg/mL | Concentration of the target in the solution measured after different incubation time [1, 6]: 117.2 µg/mL | Concentration of the target in the solution measured after different incubation time [1, 7]: 138.9 µg/mL | Concentration of the target in the solution measured after different incubation time [1, 8]: 8.4 µg/mL | Concentration of the target in the solution measured after different incubation time [1, 9]: 6.9 µg/mL | Concentration of the target in the solution measured after different incubation time [1, 10]: 0.9 µg/mL | Concentration of the target in the solution measured after different incubation time [1, 11]: 6.8 µg/mL | Concentration of the target in the solution measured after different incubation time [1, 12]: 3.6 µg/mL | Concentration of the target in the solution measured after different incubation time [1, 13]: 2.7 µg/mL | Times that of the initial medium ([1]; binary: 0.5% 101): 18 times | Concentration of guest molecule in solution ([1]; binary: 0.5% 102H): 86.6 µg/mL | Times that of the initial medium ([1]; binary: 0.5% 102H): 13.5 times | LogD7.4 or Log P [2]: 4.56 | Concentration of guest molecule measured after different incubated time ([3]; 0.5 h, 0.05% SDS in pH 6.8 phosphate buffer): 6.6 µg/mL | Concentration of guest molecule measured after different incubated time ([3]; 3 h, 0.05% SDS in pH 6.8 phosphate buffer): 6.2 µg/mL | Concentration of guest molecule measured after different incubated time ([3]; 6 h, 0.05% SDS in pH 6.8 phosphate buffer): 6.4 µg/mL | Concentration of guest molecule in solution [4, 14]: 168.1 µg/mL | Times that of the initial medium [4, 14]: 26 times | Concentration of guest molecule in solution [4, 15]: 188.6 µg/mL | Times that of the initial medium [4, 15]: 29.5 times

CCOC(=O)C1=C(C)NC(C)=C(C(=O)OC)C1c1cccc(Cl)c1Cl (stereo not shown) [Felodipine]
Concentration of the target in the solution measured after different incubation time [1, 16]: 144.8 µg/mL | Concentration of the target in the solution measured after different incubation time [1, 17]: 152.8 µg/mL | Concentration of the target in the solution measured after different incubation time [1, 18]: 147.5 µg/mL | Concentration of the target in the solution measured after different incubation time [1, 5]: 459.9 µg/mL | Concentration of the target in the solution measured after different incubation time [1, 6]: 472.0 µg/mL | Concentration of the target in the solution measured after different incubation time [1, 7]: 459.4 µg/mL | Concentration of the target in the solution measured after different incubation time [1, 8]: 18.9 µg/mL | Concentration of the target in the solution measured after different incubation time [1, 9]: 18.9 µg/mL | Concentration of the target in the solution measured after different incubation time [1, 10]: 22.2 µg/mL | Concentration of the target in the solution measured after different incubation time [1, 19]: 33.5 µg/mL | Concentration of the target in the solution measured after different incubation time [1, 20]: 30.2 µg/mL | Concentration of the target in the solution measured after different incubation time [1, 21]: 23.6 µg/mL | Concentration of the target in the solution measured after different incubation time [1, 22]: 51.2 µg/mL | Concentration of the target in the solution measured after different incubation time [1, 23]: 26.7 µg/mL | Concentration of the target in the solution measured after different incubation time [1, 24]: 11.8 µg/mL | Concentration of guest molecule in solution ([1]; binary: 0.25% 102H): 276 µg/mL | Times that of the initial medium ([1]; binary: 0.25% 102H): about 13.5 times | LogD7.4 or Log P [2]: 3.90 | Concentration of guest molecule measured after different incubated time [3, 25]: 18.1 µg/mL | Concentration of guest molecule measured after different incubated time [3, 26]: 17.8 µg/mL | Concentration of guest molecule measured after different incubated time [3, 27]: 20.4 µg/mL | Concentration of guest molecule in solution ([4]; ternary: 0.25% 102H + 1.0% 313): 662 µg/mL | Times that of the initial medium ([4]; ternary: 0.25% 102H + 1.0% 313): about 32.5 times

C=CC(=O)N1CCC[C@@H](n2nc(-c3ccc(Oc4ccccc4)cc3)c3c(N)ncnc32)C1 [Ibrutinib]
Concentration of the target in the solution measured after different incubation time [1, 16]: 48.5 µg/mL | Concentration of the target in the solution measured after different incubation time [1, 17]: 93.5 µg/mL | Concentration of the target in the solution measured after different incubation time [1, 18]: 95.3 µg/mL | Concentration of the target in the solution measured after different incubation time [1, 5]: 168.1 µg/mL | Concentration of the target in the solution measured after different incubation time [1, 6]: 176.4 µg/mL | Concentration of the target in the solution measured after different incubation time [1, 7]: 154.5 µg/mL | Concentration of the target in the solution measured after different incubation time [1, 8]: 44.1 µg/mL | Concentration of the target in the solution measured after different incubation time [1, 9]: 17.8 µg/mL | Concentration of the target in the solution measured after different incubation time [1, 10]: 17.1 µg/mL | Concentration of the target in the solution measured after different incubation time [1, 11]: 13.4 µg/mL | Concentration of the target in the solution measured after different incubation time [1, 12]: 13.7 µg/mL | Concentration of the target in the solution measured after different incubation time [1, 13]: 14.3 µg/mL | Concentration of the target in the solution measured after different incubation time [1, 19]: 33.8 µg/mL | Concentration of the target in the solution measured after different incubation time [1, 20]: 65.9 µg/mL | Concentration of the target in the solution measured after different incubation time [1, 21]: 68.4 µg/mL | Concentration of the target in the solution measured after different incubation time [1, 22]: 47.9 µg/mL | Concentration of the target in the solution measured after different incubation time [1, 23]: 53.1 µg/mL | Concentration of the target in the solution measured after different incubation time [1, 24]: 56.0 µg/mL | Concentration of guest molecule in solution ([1]; binary: 0.25% 102H): 260.2 µg/mL | Times that of the initial medium ([1]; binary: 0.25% 102H): 14 times and 14.5 times | LogD7.4 or Log P [2]: 3.63 | Concentration of guest molecule measured after different incubated time [3, 25]: 16.5 µg/mL | Concentration of guest molecule measured after different incubated time [3, 26]: 17.9 µg/mL | Concentration of guest molecule measured after different incubated time [3, 27]: 18.4 µg/mL | Concentration of guest molecule in solution [4, 28]: 157.4 µg/mL | Times that of the initial medium [4, 28]: 8.6 times | Concentration of guest molecule in solution ([4]; binary, no polymer: 0.5% 301): 156.9 µg/mL | Times that of the initial medium ([4]; binary, no polymer: 0.5% 301): 8.5 times | Concentration of guest molecule in solution [4, 29]: 206.4 µg/mL | Times that of the initial medium [4, 29]: 11 times | Encapsulation rate for the guest molecule ([4]; ternary: 0.25% 102H + 0.5% 319): ~100% | Concentration of guest molecule in solution [4, 14]: 446.0 µg/mL | Times that of the initial medium [4, 14]: about 25 times | Concentration of guest molecule in solution [4, 15]: 410.7 µg/mL | Times that of the initial medium [4, 15]: 22 times | Concentration of guest molecule in solution ([4]; ternary: 102H + 313, carrier % not given): 436.6 µg/mL | Encapsulation rate for the guest molecule [4, 30]: ~100% | Concentration of guest molecule in solution [4, 30]: 792.1 µg/mL | Times that of the initial medium [4, 30]: 43 times | Concentration of guest molecule in solution ([4]; ternary: 102H + 318, carrier % not stated): 429.9 µg/mL | Concentration of guest molecule in solution [4, 31]: 774.7 µg/mL | Times that of the initial medium [4, 31]: 42 times
